Each structure is given as a SMILES string.

Assay [1] concerns the target Proto-oncogene tyrosine-protein kinase Src (Homo sapiens, UniProt P12931). Kind of assay: Binding affinity to SRC (unknown origin) assessed as inhibition constant.
The target in assay [2] is Tyrosine-protein kinase Fyn (Homo sapiens, UniProt P06241). In words: Inhibition of full-length human recombinant Fyn using Poly(Glu4, Tyr1) as substrate measured for 60 mins by Kinase-Glo reagent based analysis.
The target in assay [3] is Tyrosine-protein kinase Lyn (Homo sapiens) (UniProt P07948). Kind of assay: Inhibition of LYN (unknown origin) at 0.1 uM relative to control.
Tyrosine-protein kinase Lyn (Homo sapiens), sequence (P07948 2-512 limits assumed): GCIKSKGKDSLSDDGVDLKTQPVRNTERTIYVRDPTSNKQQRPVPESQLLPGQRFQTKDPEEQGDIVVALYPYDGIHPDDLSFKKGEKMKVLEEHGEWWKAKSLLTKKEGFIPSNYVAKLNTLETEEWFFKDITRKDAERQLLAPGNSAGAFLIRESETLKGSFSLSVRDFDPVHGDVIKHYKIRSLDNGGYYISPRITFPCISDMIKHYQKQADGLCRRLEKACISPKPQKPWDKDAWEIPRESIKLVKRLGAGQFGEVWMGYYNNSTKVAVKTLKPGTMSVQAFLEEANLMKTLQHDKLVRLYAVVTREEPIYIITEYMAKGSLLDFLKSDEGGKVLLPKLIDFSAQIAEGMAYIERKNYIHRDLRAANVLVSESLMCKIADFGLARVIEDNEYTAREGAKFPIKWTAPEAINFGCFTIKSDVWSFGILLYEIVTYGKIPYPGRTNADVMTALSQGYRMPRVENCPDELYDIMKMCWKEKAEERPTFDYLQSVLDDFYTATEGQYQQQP

Tyrosine-protein kinase Fyn, sequence (P06241 whole entry): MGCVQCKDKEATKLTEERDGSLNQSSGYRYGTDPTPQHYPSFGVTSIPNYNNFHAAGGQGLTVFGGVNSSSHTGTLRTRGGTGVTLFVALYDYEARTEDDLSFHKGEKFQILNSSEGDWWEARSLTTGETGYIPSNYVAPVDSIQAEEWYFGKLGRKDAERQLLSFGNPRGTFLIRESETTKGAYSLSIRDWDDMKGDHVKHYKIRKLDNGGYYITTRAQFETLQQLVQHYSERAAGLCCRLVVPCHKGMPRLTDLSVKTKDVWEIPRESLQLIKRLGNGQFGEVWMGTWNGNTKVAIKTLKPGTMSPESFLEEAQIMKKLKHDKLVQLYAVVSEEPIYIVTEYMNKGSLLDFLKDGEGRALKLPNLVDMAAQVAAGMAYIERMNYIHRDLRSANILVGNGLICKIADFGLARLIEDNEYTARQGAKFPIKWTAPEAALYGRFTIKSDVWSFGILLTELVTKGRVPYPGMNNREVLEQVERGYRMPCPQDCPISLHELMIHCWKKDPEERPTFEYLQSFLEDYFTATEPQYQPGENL
Proto-oncogene tyrosine-protein kinase Src, sequence (P12931 2-536 limits assumed): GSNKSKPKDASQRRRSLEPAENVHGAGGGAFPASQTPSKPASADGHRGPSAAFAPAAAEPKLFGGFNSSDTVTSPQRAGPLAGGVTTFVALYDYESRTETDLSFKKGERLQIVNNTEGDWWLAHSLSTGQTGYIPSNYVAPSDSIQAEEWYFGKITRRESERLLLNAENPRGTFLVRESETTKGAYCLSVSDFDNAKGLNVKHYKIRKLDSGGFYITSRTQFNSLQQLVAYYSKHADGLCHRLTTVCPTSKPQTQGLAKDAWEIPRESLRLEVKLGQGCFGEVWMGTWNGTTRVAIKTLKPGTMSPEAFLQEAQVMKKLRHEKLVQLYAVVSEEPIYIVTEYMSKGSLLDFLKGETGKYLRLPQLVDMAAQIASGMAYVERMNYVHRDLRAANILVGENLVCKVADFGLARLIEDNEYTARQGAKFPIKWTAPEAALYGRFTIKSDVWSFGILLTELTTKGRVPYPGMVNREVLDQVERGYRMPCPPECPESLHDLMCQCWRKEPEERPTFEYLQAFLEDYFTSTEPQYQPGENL

Usually Ki stands for a dissociation constant, usually derived from enzyme kinetics or from competition with a known ligand. `Oc1ccc(F)c(Nc2nc(SCCN3CCOCC3)nc3c2cnn3CC(Cl)c2ccccc2)c1` (centres undefined): in assay [1], the Ki turned out to be 0.17 µM.
In general, IC50 refers to the point on the concentration scale where inhibition reaches its midpoint. As to `Cc1nnc(NC2CCCCC2)nc1O`, in assay [2], the IC50 amounted to 0.76 µM.
For the compound `Cc1n[nH]c(Nc2ccc3c(c2)OCO3)nc1=O`, in assay [2], the IC50 was 4.8 µM.
For orientation: inhibition means the relative decrease from the control value, in per cent. In assay [3], `CSc1ccc(C(=O)NCc2cc3c(=O)[nH]c(N)nc3[nH]2)cc1` came in with an inhibition of 42%.

(Values after ChEMBL document CHEMBL5614368, “Fyn, Blk, and Lyn kinase inhibitors: A mini-review on medicinal attributes, research progress, and future insights” (Bioorg Med Chem Lett, 2024).)
